Assay results taken from article PMC8175350, “Drug repurposing screens identify chemical entities for the development of COVID-19 interventions” (Nature Communications, 2021).
Read-outs that look alike come from different tables or passages of the source.

Experiments:
SARS-CoV-2 [1] = assay: microbe, parasite or virus in culture; format: cell-based; conditions: for Emax: Severe acute respiratory syndrome coronavirus 2, HeLa-ACE2, 24 h, curve plateau at infinite concentration, read-out: HeLa-ACE2 CoV-2 Sinf Average; for EC50: Severe acute respiratory syndrome coronavirus 2, HeLa-ACE2, detail column, read-out: HeLa-ACE2 CoV-2 EC50 GeoMean
[2] = Uninfected HeLa-ACE2 24 h live/dead cytotoxicity counter screen; format: cell-based, human; conditions: human, uninfected HeLa-ACE2 cells; read-out: HeLa-ACE2 uninfected cytotoxicity CC50 GeoMean
HeLa-ACE2 cells [3] = assay: as above; format: cell-based, human; conditions: curve plateau at infinite concentration
SARS-CoV-2 [4] = assay: microbe, parasite or virus in culture; format: cell-based; conditions: for Emax: Severe acute respiratory syndrome coronavirus 2, Calu-3, 48 h, curve plateau at infinite concentration, read-out: Calu-3 CoV-2 Sinf Average; for EC50: Severe acute respiratory syndrome coronavirus 2, Calu-3, detail column, read-out: Calu-3 CoV-2 EC50 GeoMean
SARS-CoV-2 [5] = assay: microbe, parasite or virus in culture; format: cell-based; conditions: for Emax: Severe acute respiratory syndrome coronavirus 2, HeLa-ACE2, 10 h, curve plateau at infinite concentration, read-out: HeLa-ACE2 TOA CoV-2 Sinf Average; for EC50: Severe acute respiratory syndrome coronavirus 2, HeLa-ACE2, read-out: HeLa-ACE2 TOA CoV-2 EC50 GeoMean
SARS-CoV-2 [6] = format: cell-based; conditions: combination with remdesivir, synergy score δ
HeLa-ACE2 cells [7] = assay: Total cell count in the HeLa-ACE2 TOA assay; format: cell-based; conditions: Homo sapiens; for Emax: HeLa-ACE2, 10 h, curve plateau at infinite concentration, read-out: HeLa-ACE2 TOA cell count Sinf Average; for EC50: HeLa-ACE2, read-out: HeLa-ACE2 TOA cell count EC50 GeoMean
Excerpt: Supplement 41467_2021_23328_MOESM3_ESM.xlsx, sheet "Table S1" | column: HeLa-ACE2 TOA cell count

HeLa-ACE2 cells [8] = assay: cells; conditions: Homo sapiens; for Emax: HeLa-ACE2, 24 h, read-out: HeLa-ACE2 cell count Sinf Average; for EC50: HeLa-ACE2, read-out: HeLa-ACE2 cell count EC50 GeoMean
Calu-3 cells [9] = assay: cells; conditions: Homo sapiens; for Emax: Calu-3, 48 h, read-out: Calu-3 cell count Sinf Average; for EC50: Calu-3, read-out: Calu-3 cell count EC50 GeoMean
in vitro = conditions: human, Calu-3 uninfected cytotoxicity CC50 GeoMean
HepG2 = HepG2 72 h CellTiter-Glo cytotoxicity; conditions: 72 h
HEK293T = HEK293T 72 h CellTiter-Glo cytotoxicity; conditions: 72 h
Calu-3 cells [10] = assay: Uninfected Calu-3 48 h Cell-Titer Glo cytotoxicity counter screen; conditions: curve plateau at infinite concentration

Compound | Emax (SARS-CoV-2 [1]) [%] | EC50 (SARS-CoV-2 [1]) [nM] | CC50 at 24 h [2] [nM] | HeLa-ACE2 uninfected cytotoxicity Sinf Average (HeLa-ACE2 cells [3]) [%] | Emax (SARS-CoV-2 [4]) [%] | EC50 (SARS-CoV-2 [4]) [nM] | Emax (SARS-CoV-2 [5]) [%] | EC50 (SARS-CoV-2 [5]) [nM] | HeLa-ACE2 synergy score with remdesivi [δ] (SARS-CoV-2 [6]) | Emax (HeLa-ACE2 cells [7]) [%] | EC50 (HeLa-ACE2 cells [7]) [nM] | Emax (HeLa-ACE2 cells [8]) [%] | EC50 (HeLa-ACE2 cells [8]) [nM] | Emax (Calu-3 cells [9]) [%] | EC50 (Calu-3 cells [9]) [nM] | CC50 (in vitro) [nM] | HepG2 72-hour cytotoxicity Sinf Average (HepG2) [%] | HEK293T 72-hour cytotoxicty Sinf Average (HEK293T) [%] | Calu-3 uninfected cytotoxicity Sinf Average (Calu-3 cells [10]) [%]
C=CC(=O)Nc1cc(Nc2nccc(-c3cn(C)c4ccccc34)n2)c(OC)cc1N(C)CCN(C)C [AZD-9291/Osimertinib] | 100 | 962 | > 18100 | -100 | 100 | > 1590 | 100 | > 7850 | -0.722 | -100 | > 9600 | 98 | > 4230 | -100 | > 9980 | 1690 | -107 | -103 | -89
CCC(CC)COC(=O)[C@H](C)NP(=O)(OC[C@H]1O[C@@](C#N)(c2ccc3c(N)ncnn23)[C@H](O)[C@@H]1O)Oc1ccccc1 (stereo partly shown) [Remdesivir - control] | 100 | 123 | > 9670 | -98 | 100 | 444 | 101 | 770 |  | 100 | > 2400 | -42 | > 1200 | 101 | 537 | > 30000 | -100 | -95 | -100
